{
  "source": "paper PMC6501426",
  "about": "(Clinical Epigenetics, 2019)",
  "key": {"[1]": {"tested_on": "PBMCs (non-proliferating, healthy donors)", "assay": "Cell viability, trypan blue exclusion", "type": "cell-based", "details": "Homo sapiens, PBMC, 48 h of treatment, read-out: IC50 ± SD, cell viability, PBMCs", "procedure": "Peripheral blood mononuclear cells (PBMCs) from healthy donors were isolated as previously described. Freshly isolated PBMCs were either cultured and treated at 1.10^6 cells/mL (non-proliferating PBMCs) or stimulated with phytohaemoagglutinin (PHA) and interleukin (IL)-2 (called PHA_PBMCs) to induce blastogenesis in T lymphocytes before treatments as previously described. Briefly, freshly isolated PBMCs were seeded at a concentration of 2.10^6 cells/mL in RMPI 1640 supplemented with 1% antibiotic-antimycotic (Lonza, Verviers, Belgium) and 10% human AB serum (Corning, Fisher scientific, Merelbeke, Belgium). After overnight incubation, floating lymphoid cells were collected and seeded at 1.10^6 cells/mL in RMPI 1640 supplemented with 1% antibiotic-antimycotic, 5% FBS, 10% human AB serum, 1 μg/mL PHA (Gentaur, Kampenhout, Belgium), 50 U/mL IL-2 (Roche, Prophac, Luxembourg City, Luxembourg), 1% non-essential amino acids (Invitrogen, Luxembourg), 1% HEPES (Invitrogen, Luxembourg), 1% sodium pyruvate (Invitrogen, Luxembourg), and 0.1% β-mercaptoethanol (Invitrogen, Luxembourg). After 72 h, the cells were seeded at 1.10^6 cells/mL in the same mitogenic growth medium described just above and treated with test compounds.\n(§1) Proliferation and viability of U-937, KG-1, RAJI, PC-3, MDA-MB-231, RPMI1788, PBMCs, and PHA_PBMCs were assessed by trypan blue exclusion assays at the indicated time points. Nuclear morphology changes associated with apoptosis and necrosis were evaluated by fluorescence microscopy after Hoechst and propidium iodide (PI) staining as previously described.\n(§2) IC50 values of compounds against cellular viability were determined by using nonlinear regression fitting curves with GraphPad Prism 8 or CalcuSyn software The t test used for statistical analyses was performed with GraphPad Prism 8. All the tests were one-tailed, and a p value < 0.05 was considered statistically significant."}, "[2]": {"tested_on": "DNMT3A protein level in HCT116 cells", "assay": "Western blot of DNMT3A protein in HCT116", "type": "cell-based, human", "details": "24 h; MC3353 effect detectable at 0.1 μM", "source_text": "Cells were lysed in Laemmli buffer; subsequently, the proteins were resolved by sodium dodecyl sulfate-polyacrylamide gel electrophoresis and transferred to a 0.45-μm nitrocellulose membrane (Bio-Rad Laboratories, Hercules, CA). The following primary antibodies were used for immunoblotting: α-E-cadherin (BD Transduction Laboratories, Franklin Lakes, NJ), α-MMP2 (Abcam), α-DNMT3a (Santa Cruz Biotechnologies, Dallas, TX), and α-GAPDH (Millipore Corp., Bedford, MA), used as a loading control. The immune complexes were detected with horseradish peroxidase-conjugated species-specific secondary antiserum (Bio-Rad Laboratories, Milan, Italy) then by enhanced chemiluminescence reaction (Bio-Rad Laboratories, Milan, Italy). Densitometric analysis of protein expression was performed by using the Fiji ImageJ image processing package.\nGAPDH was used as a loading control. Blots are representative of two independent experiments"}, "MDA-MB-231": {"tested_on": "MDA-MB-231", "assay": "Cell viability, trypan blue exclusion", "type": "cell-based, human", "details": "Homo sapiens, MDA-MB-231; 48 h of treatment; read-out: IC50 ± SD, cell viability, MDA-MB-231", "procedure": "(§3) U-937 (acute myeloid leukemia), RAJI (Burkitt’s lymphoma), PC-3 (prostate cancer), and MDA-MB-231 (breast cancer) cell lines were obtained from the Deutsche Sammlung für Mikroorganismen and Zellkulturen (DSZM, Braunschweig, Germany) and were cultured in RPMI 1640 (Lonza, Verviers, Belgium) complemented with 10% FBS (Lonza, Verviers, Belgium) and 1% antibiotic-antimycotic (Lonza). RPMI1788 (normal B lymphocytes) and KG-1 (acute myeloid leukemia) cell lines were obtained from the American Type Culture Collection (ATCC) and were maintained in RPMI 1640 complemented with 20% FBS and IMDM complemented with 10% FBS, respectively. Cell lines were treated with compounds at the indicated concentrations in the exponential growth phase.\nas §1, §2"}, "PC-3": {"tested_on": "PC-3", "assay": "Cell viability, trypan blue exclusion", "type": "cell-based, human", "details": "Homo sapiens, PC-3; 48 h of treatment; read-out: IC50 ± SD, cell viability, PC-3", "procedure": "as §3, §1, §2"}, "RAJI": {"tested_on": "RAJI", "assay": "Cell viability, trypan blue exclusion", "type": "cell-based, human", "details": "Homo sapiens, Raji; 48 h of treatment; read-out: IC50 ± SD, cell viability, RAJI", "procedure": "as §3, §1, §2"}, "KG-1": {"tested_on": "KG-1", "assay": "Cell viability, trypan blue exclusion", "type": "cell-based, human", "details": "Homo sapiens, KG-1; 48 h of treatment; read-out: IC50 ± SD, cell viability, KG-1", "procedure": "as §3, §1, §2"}, "[3]": {"tested_on": "RPMI1788 (normal B lymphocytes)", "assay": "Cell viability, trypan blue exclusion", "type": "cell-based", "details": "Homo sapiens, RPMI-1788; 48 h of treatment; normal cells; read-out: IC50 ± SD, cell viability, RPMI1788", "procedure": "as §3, §1\nIC50 values of compounds against cellular viability were determined by using nonlinear regression fitting curves with GraphPad Prism 8 or CalcuSyn software The t test used for statistical analyses was performed with GraphPad Prism 8. […]"}},
  "data": [
    {"molecule": "Cc1cc(Nc2ccc(NC(=O)c3ccc(Nc4ccnc5ccccc45)cc3)cc2)nc(N)n1", "note": "[SGI-1027, reference compound]", "values": [
      {"measurement": "IC50", "setting": "[1]", "value": "18.1 ± 6.8", "unit": "µM"},
      {"measurement": "DNMT3A protein expression level (western blot), HCT116", "setting": "[2]", "value": "moderate effect on DNMT3A expression level"},
      {"measurement": "IC50", "setting": "MDA-MB-231", "value": "8.5 ± 7.2", "unit": "µM"},
      {"measurement": "IC50", "setting": "PC-3", "value": "5 ± 0.6", "unit": "µM"},
      {"measurement": "IC50", "setting": "RAJI", "value": "7.8 ± 0.7", "unit": "µM"},
      {"measurement": "IC50", "setting": "KG-1", "value": "3.6 ± 0.6", "unit": "µM"},
      {"measurement": "IC50", "setting": "[3]", "value": "6.7 ± 1.3", "unit": "µM"}
    ]}
  ]
}
